{"source": "patent US20250134863A1", "about": "“MEDICAL AGENT FOR TREATING OR SUPPRESSING PROGRESSION OF AMYOTROPHIC LATERAL SCLEROSIS” (MITSUBISHI TANABE PHARMA CORPORATION, priority 2022, published 2025)", "tested_on": "ALS patients", "assay": "Post-hoc statistical analysis 1: blood uric acid levels in 25% improvement and non-25% improvement groups", "assay_type": "in vivo, human", "description": "The blood uric acid levels in the 16 trial, 17 trial, and 19 trial were measured values obtained using the uricase-peroxidase method.\nIn the present analysis, efficacy was analyzed for placebo patients who had completed the 24-week double-blind period (cycles 1 to 6) and had at least one data point in cycle 7. To estimate the percent change in ALSFRS-R slope for transition from placebo administration (baseline to 24 weeks) to edaravone administration (24 weeks 24 to 48 weeks), a random coefficient model was applied to all available ALSFRS-R score data during this period.\nA 25% improvement group meets both of the following criteria:\n(1) ALSFRS-R slope % change ≥+25% (this change is defined as a clinically significant improvement (Reference 5: Amyotroph Lateral Scler 2010; 11 (1-2): 178-180)) and (2) ALSFRS-R total score at the start of cycle 7 (24 weeks)>24 points (half of the 48-point ALSFRS-R total score) (this helps avoid floor effects related to the ALSFRS-R total score that could lead to false positives in the analysis).\nThese criteria were used to define a 25% improvement group and a non-25% improvement group. Using a mixed model for repeated measures, the changes in uric acid levels from the start of cycle 7 (24 weeks) to cycle 12 (48 weeks) were summarized for the 25% improvement group and the non-25% improvement group. The correlation between the change in uric acid levels from 24 weeks to 48 weeks and the ALSFRS-R slope percent change was descriptively summarized using the Wilcoxon test.", "key": {"[1]": {"details": "25% improvement group, ALS severity grade 3 to 5"}, "[2]": {"details": "25% improvement group, ALS severity grade 3 to 5, first change section of Table 3 (n=21)"}, "[3]": {"details": "25% improvement group, ALS severity grade 3 to 5, second change section of Table 3 (n=18)"}, "[4]": {"details": "25% improvement group, all severities"}, "[5]": {"details": "non-25% improvement group, ALS severity grade 3 to 5"}, "[6]": {"details": "non-25% improvement group, ALS severity grade 3 to 5, first change section of Table 3 (n=39)"}, "[7]": {"details": "non-25% improvement group, ALS severity grade 3 to 5, second change section of Table 3 (n=24)"}, "[8]": {"details": "non-25% improvement group, all severities"}}, "note": "Several values for one entry are separate records, joined by “and”; a condition that tells them apart may be missing. Identical values can stand only once.", "data": [{"compound": "CC1=NN(c2ccccc2)C(=O)C1", "note": "[edaravone, 3-methyl-1-phenyl-2-pyrazolin-5-one]", "values": [{"measurement": "Uric acid level at final administration of Cycle 7, Mean (SD)", "setting": "[1]", "value": "4.65 (1.49) mg/dL"}, {"measurement": "Uric acid level at final administration of Cycle 12, Mean (SD)", "setting": "[1]", "value": "4.61 (1.48) mg/dL"}, {"measurement": "Uric acid change from start of Cycle 7 to final administration of Cycle 12, LS mean (SE)", "setting": "[2]", "value": "−0.37 (0.24) mg/dL"}, {"measurement": "Uric acid change from start of Cycle 7 to final administration of Cycle 12, Mean (SD)", "setting": "[2]", "value": "0.05 (0.47) mg/dL"}, {"measurement": "Uric acid change from start of Cycle 7 to final administration of Cycle 12, LS mean (SE)", "setting": "[3]", "value": "−0.42 (0.24) mg/dL"}, {"measurement": "Uric acid change from start of Cycle 7 to final administration of Cycle 12, Mean (SD)", "setting": "[3]", "value": "0.04 (0.60) mg/dL"}, {"measurement": "Uric acid change from start of Cycle 7 to final administration of Cycle 7, LS mean (SE)", "setting": "[4]", "value": "−0.16 mg/dL and −0.16 (0.15) mg/dL"}, {"measurement": "Uric acid change from start of Cycle 7 to final administration of Cycle 7, Mean (SD)", "setting": "[4]", "value": "0.05 mg/dL and 0.05 (0.49) mg/dL"}, {"measurement": "Uric acid change from start of Cycle 7 to final administration of Cycle 12, LS mean (SE)", "setting": "[4]", "value": "−0.28 mg/dL and −0.28 (0.15) mg/dL"}, {"measurement": "Uric acid change from start of Cycle 7 to final administration of Cycle 12, Mean (SD)", "setting": "[4]", "value": "−0.04 mg/dL and −0.04 (0.68) mg/dL"}, {"measurement": "Uric acid level at final administration of Cycle 12, Mean (SD)", "setting": "[4]", "value": "4.51 (1.43) mg/dL"}, {"measurement": "Uric acid level at final administration of Cycle 7, Mean (SD)", "setting": "25% improvement group, all severities, 2 weeks after starting edaravone", "value": "4.63 (1.45) mg/dL"}, {"measurement": "Uric acid change from start of Cycle 7 to final administration of Cycle 12, LSMD (SE) between 25% improvement group and non-25% improvement group", "setting": "ALS severity grade 3 to 5, first change section of Table 3, p=0.1701", "value": "0.24 (0.18) mg/dL"}, {"measurement": "Uric acid change from start of Cycle 7 to final administration of Cycle 12, LSMD (SE) between 25% improvement group and non-25% improvement group", "setting": "ALS severity grade 3 to 5, second change section of Table 3, p=0.0044", "value": "0.55 (0.19) mg/dL"}, {"measurement": "Uric acid change from start of Cycle 7 to final administration of Cycle 12, LSMD (SE) between 25% improvement group and non-25% improvement group", "setting": "all severities, p=0.0252", "value": "0.28 mg/dL and 0.28 (0.12) mg/dL"}, {"measurement": "Uric acid change from start of Cycle 7 to final administration of Cycle 7, LSMD (SE) between 25% improvement group and non-25% improvement group", "setting": "all severities, p=0.0726", "value": "0.21 mg/dL and 0.21 (0.12) mg/dL"}, {"measurement": "Uric acid level at final administration of Cycle 7, Mean (SD)", "setting": "[5]", "value": "4.31 (1.10) mg/dL"}, {"measurement": "Uric acid level at final administration of Cycle 12, Mean (SD)", "setting": "[5]", "value": "4.18 (1.00) mg/dL"}, {"measurement": "Uric acid change from start of Cycle 7 to final administration of Cycle 12, LS mean (SE)", "setting": "[6]", "value": "−0.61 (0.21) mg/dL"}, {"measurement": "Uric acid change from start of Cycle 7 to final administration of Cycle 12, Mean (SD)", "setting": "[6]", "value": "−0.22 (0.60) mg/dL"}, {"measurement": "Uric acid change from start of Cycle 7 to final administration of Cycle 12, LS mean (SE)", "setting": "[7]", "value": "−0.98 (0.22) mg/dL"}, {"measurement": "Uric acid change from start of Cycle 7 to final administration of Cycle 12, Mean (SD)", "setting": "[7]", "value": "−0.40 (1.02) mg/dL"}, {"measurement": "Uric acid change from start of Cycle 7 to final administration of Cycle 7, LS mean (SE)", "setting": "[8]", "value": "−0.37 mg/dL and −0.37 (0.12) mg/dL"}, {"measurement": "Uric acid change from start of Cycle 7 to final administration of Cycle 7, Mean (SD)", "setting": "[8]", "value": "−0.14 mg/dL and −0.14 (0.52) mg/dL"}, {"measurement": "Uric acid change from start of Cycle 7 to final administration of Cycle 12, LS mean (SE)", "setting": "[8]", "value": "−0.56 mg/dL and −0.56 (0.12) mg/dL"}, {"measurement": "Uric acid change from start of Cycle 7 to final administration of Cycle 12, Mean (SD)", "setting": "[8]", "value": "-0.22 mg/dL and −0.22 (0.81) mg/dL"}, {"measurement": "Uric acid level at final administration of Cycle 7, Mean (SD)", "setting": "[8]", "value": "4.46 (1.29) mg/dL"}, {"measurement": "Uric acid level at final administration of Cycle 12, Mean (SD)", "setting": "[8]", "value": "4.48 (1.29) mg/dL"}]}]}
